Values quoted from earlier work in patent US9018178B2, “Method for the treatment of food, feed and agricultural products with a polyene antifungal compound” (DSM IP Assets B.V., priority 2007, dated 2015).

Test system: common food spoilage yeasts and moulds
Conditions: most strains of common food spoilage yeasts and moulds

For `C[C@@H]1C/C=C/C=C/C=C/C=C/[C@H](O[C@@H]2O[C@H](C)[C@@H](O)[C@H](N)[C@@H]2O)C[C@@H]2O[C@](O)(C[C@@H](O)C[C@H]3O[C@@H]3/C=C/C(=O)O1)C[C@H](O)[C@H]2C(=O)O` [natamycin], the “Concentrations inhibiting most strains” value is listed as 1-15 ppm.
